In patent US20250171495A1, “MUTLI-TARGETED SERINE PROTEASE INHIBITORS FOR TREATMENT OF CANCER AND VIRAL INFECTION” (Washington University, priority 2023, published 2025):
pIC50: −log10 of the molar value. Like-named read-outs stand apart in the source and are kept apart here. Numbered stars: 1 amine (or outer) side, 2 acyl side, 3 side chain; on linkers, the order of the positions; unused ones are H or OH. Square brackets hold non-standard residues; d marks the D form. Peptide text beside a SMILES is read from it. X1 = N=C(N)NCCC[C@H](N[*:1])C(=O)c1nc2ccc(C(=O)[*:2])cc2s1; Phe(4-NO2) = N[C@@H](Cc1ccc([N+](=O)[O-])cc1)C(=O)O

Columns and labels:
Format in all cases: biochemical
matriptase = molecular target: T1, matriptase (Homo sapiens, UniProt Q9Y5Y6); assay: Fluorogenic kinetic enzyme inhibitor assay, matriptase
T1 construct: purchased R&D Systems 3946-SEB-010
T1 sequence (Q9Y5Y6 615-855 limits assumed): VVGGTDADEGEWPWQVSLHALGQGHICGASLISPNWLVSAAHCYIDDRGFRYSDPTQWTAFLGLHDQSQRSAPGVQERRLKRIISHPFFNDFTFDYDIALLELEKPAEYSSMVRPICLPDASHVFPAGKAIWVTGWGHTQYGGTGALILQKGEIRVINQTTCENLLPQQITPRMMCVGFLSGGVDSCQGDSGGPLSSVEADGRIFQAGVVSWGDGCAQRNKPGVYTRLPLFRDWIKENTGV

hepsin = molecular target: T2, hepsin (Homo sapiens, UniProt P05981); assay: Fluorogenic kinetic enzyme inhibitor assay, hepsin; details: read-out: Hepsin IC50
T2 construct: purchased R&D Systems 4776-SE-010
T2 sequence (P05981 163-417 limits assumed): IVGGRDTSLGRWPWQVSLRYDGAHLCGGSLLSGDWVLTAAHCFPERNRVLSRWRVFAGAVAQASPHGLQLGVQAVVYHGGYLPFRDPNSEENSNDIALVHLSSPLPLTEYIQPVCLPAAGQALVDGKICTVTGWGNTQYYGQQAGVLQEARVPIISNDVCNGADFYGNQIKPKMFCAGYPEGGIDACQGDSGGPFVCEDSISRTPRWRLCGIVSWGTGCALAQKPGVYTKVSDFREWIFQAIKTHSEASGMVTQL
T2 sequence (P05981 1-162 partner limits assumed): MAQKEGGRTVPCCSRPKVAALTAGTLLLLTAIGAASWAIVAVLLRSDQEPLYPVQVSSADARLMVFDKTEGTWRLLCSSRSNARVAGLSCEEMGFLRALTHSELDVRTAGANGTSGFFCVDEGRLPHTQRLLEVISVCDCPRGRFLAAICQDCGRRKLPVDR

HGFA = molecular target: T3, HGFA (Homo sapiens, UniProt Q04756); assay: Fluorogenic kinetic enzyme inhibitor assay, HGFA
T3 construct: purchased R&D Systems 1514-SE-010
T3 sequence (Q04756 408-655 limits assumed): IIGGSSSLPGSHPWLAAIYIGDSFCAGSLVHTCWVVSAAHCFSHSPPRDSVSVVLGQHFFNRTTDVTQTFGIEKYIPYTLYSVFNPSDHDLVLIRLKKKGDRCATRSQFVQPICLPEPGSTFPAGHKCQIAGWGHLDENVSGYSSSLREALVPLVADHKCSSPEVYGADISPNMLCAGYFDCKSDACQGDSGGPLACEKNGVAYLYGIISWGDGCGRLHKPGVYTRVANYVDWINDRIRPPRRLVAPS
T3 sequence (Q04756 373-407 partner limits assumed): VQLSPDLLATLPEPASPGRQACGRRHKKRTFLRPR

Thrombin = Thrombin (Homo sapiens, UniProt P00734); assay: Fluorogenic assay, thrombin
Factor Xa = molecular target: T4, Factor Xa (Homo sapiens, UniProt P00742); assay: Fluorogenic assay, Factor Xa; details: read-out: Factor Xa IC50
T4 construct: TMPRSS2; Matriptase; Hepsin; HGFA; Thrombin; Factor Xa
T4 sequence (P00742 235-488 limits assumed): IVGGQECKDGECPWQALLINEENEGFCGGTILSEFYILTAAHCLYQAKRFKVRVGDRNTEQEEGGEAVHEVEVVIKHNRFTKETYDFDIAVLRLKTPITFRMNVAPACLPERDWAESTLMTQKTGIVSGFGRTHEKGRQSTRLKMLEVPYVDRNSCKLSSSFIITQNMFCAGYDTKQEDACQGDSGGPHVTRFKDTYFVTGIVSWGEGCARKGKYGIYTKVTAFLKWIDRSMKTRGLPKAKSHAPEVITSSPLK
T4 sequence (P00742 41-179 partner limits assumed): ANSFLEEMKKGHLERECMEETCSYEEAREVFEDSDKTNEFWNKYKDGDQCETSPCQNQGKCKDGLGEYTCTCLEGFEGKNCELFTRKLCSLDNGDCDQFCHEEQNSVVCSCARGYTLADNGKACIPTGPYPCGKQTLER

TMPRSS2 = TMPRSS2 (Homo sapiens, UniProt O15393); assay: Fluorogenic kinetic enzyme inhibitor assay, TMPRSS2; set-up: purchased Cusabio Technology CSB-YP023924HU
TMPRSS2, sequence (O15393 106-492 limits assumed): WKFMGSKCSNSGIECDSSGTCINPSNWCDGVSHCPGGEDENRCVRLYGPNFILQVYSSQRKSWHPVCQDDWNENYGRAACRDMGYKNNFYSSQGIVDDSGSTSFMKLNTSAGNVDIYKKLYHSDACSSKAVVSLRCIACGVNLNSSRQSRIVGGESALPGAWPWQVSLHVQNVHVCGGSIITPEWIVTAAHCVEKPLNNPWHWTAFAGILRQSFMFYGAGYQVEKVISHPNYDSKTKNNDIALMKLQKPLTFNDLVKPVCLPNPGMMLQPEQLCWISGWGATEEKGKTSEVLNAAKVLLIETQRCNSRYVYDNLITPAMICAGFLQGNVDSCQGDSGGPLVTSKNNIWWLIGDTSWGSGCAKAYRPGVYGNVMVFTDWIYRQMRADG

[1] = 30 min incubation, Boc-QLR-AMC at Km, read-out: HGFA IC50

SMILES: CC(=O)N[C@@H](CO)C(=O)N[C@@H](Cc1ccc([N+](=O)[O-])cc1)C(=O)N[C@@H](CC(C)C)C(=O)N[C@@H](CCCNC(=N)N)C(=O)c1nc2ccc(C(=O)N[C@H](C(N)=O)C(C)C)cc2s1 [MM1180, N-[(S)-1-carbamoyl-2-methylpropyl]-2-[(S)-2-[(S)-2-[(S)-2-[(S)-2-acetylamino-3-hydroxypropionylamino]-3-(p-nitrophenyl)propionylamino]-4-methylvalerylamino]-5-guanidinovaleryl]-1,3-benzothiazole-6-carboxamide] (Ac-S[Phe(4-NO2)]L[X1]V-NH2)
- pIC50 (matriptase): 6.88
- pIC50 (hepsin): 8.51
- pIC50 (HGFA; read-out: HGFA IC50): 6.64
- pIC50 (Thrombin): 6.87
- pIC50 (Factor Xa): 7.19

SMILES: CCC(C)[C@H](NC(C)=O)C(=O)N[C@@H](CCC(N)=O)C(=O)N[C@H](C(=O)N[C@@H](CCCNC(=N)N)C(=O)c1nc2ccccc2s1)C(C)O (stereo partly drawn) [MM3186, N-[(1S)-2-hydroxy-1-[N-(S)-1-[(1,3-benzothiazol-2-yl)carbonyl]-4-guanidinobutylcarbamoyl]propyl](S)-2-[(2S)-2-acetylamino-3-methylvalerylamino]glutaramide]
- pIC50 (matriptase): 7.81
- pIC50 (HGFA; read-out: HGFA IC50): 4.74
- pIC50 (Thrombin): < 4.70
- pIC50 (Factor Xa): < 4.70
- pIC50 (TMPRSS2; read-out: TMPRSS2 IC50): 9.76

SMILES: CC(=O)N[C@H]1Cc2ccc(cc2)OCCCC[C@@H](C(=O)N[C@H](CCCNC(=N)N)C(=O)c2nc3ccccc3s2)NC(=O)[C@@H](Cc2c[nH]c3ccccc23)NC1=O [VD4162A, N-[(R)-1-[(1,3-benzothiazol-2-yl)carbonyl]-4-guanidinobutyl]-(7S,10R,13S)-13-acetylamino-10-[(3-indolyl)methyl]-9,12-dioxo-2-oxa-8,11-diazabicyclo[13.2.2]nonadeca-1(17),15,18-triene-7-carboxamide]
- pIC50 (matriptase): 7.51
- pIC50 (hepsin): 8.52
- pIC50 (HGFA; read-out: HGFA IC50): 7.28
- pIC50 (Thrombin): < 4.70
- pIC50 (Factor Xa): 5.13

SMILES: CCC(C)[C@H](NC(C)=O)C(=O)N[C@@H](CCC(N)=O)C(=O)N[C@H](C(=O)N[C@H](CCCNC(=N)N)C(=O)c1nc2ccccc2s1)C(C)C (stereo partly drawn) [MM3180-1, N-[(S)-2-methyl-1-[N-(R)-1-[(1,3-benzothiazol-2-yl)carbonyl]-4-guanidinobutylcarbamoyl]propyl](S)-2-[(2S)-2-acetylamino-3-methylvalerylamino]glutaramide]
- pIC50 (HGFA; read-out: HGFA IC50): 4.84
- pIC50 (Thrombin): < 4.70
- pIC50 (Factor Xa): < 4.70
- pIC50 (TMPRSS2; read-out: TMPRSS2 IC50): 8.54

SMILES: CC(=O)N[C@@H](Cc1cncn1COCc1ccccc1)C(=O)N[C@@H](CCCCNC(=N)N)C(=O)N[C@@H](CCC(C)C)C(=O)N[C@@H](CCCNC(=N)N)C(=O)c1nc2ccccc2s1 [JH1143-2, N-[(S)-1-[(1,3-benzothiazol-2-yl)carbonyl]-4-guanidinobutyl](S)-2-[(S)-1-[(S)-2-acetylamino-3-{1-[(benzyloxy)methyl]-5-imidazolyl}propionylamino]-5-guanidinopentylcarbonylamino]-5-methylhexanamide]
- pIC50 (matriptase): 9.06
- pIC50 (hepsin): 9.14
- pIC50 (HGFA; read-out: HGFA IC50): 7.36
- pIC50 (Thrombin): 5.79
- pIC50 (Factor Xa): 6.75

SMILES: CC(=O)N[C@@H](CO)C(=O)N[C@H](Cc1c[nH]c2ccccc12)C(=O)N[C@@H](CC(C)C)C(=O)N[C@@H](CCCNC(=N)N)C(=O)c1nc2ccc(C(=O)N[C@H](C(N)=O)C(C)C)cc2s1 [JH1114, N-[(S)-1-carbamoyl-2-methylpropyl]-2-[(S)-2-[(S)-2-[(R)-2-[(S)-2-acetylamino-3-hydroxypropionylamino]-3-(3-indolyl)propionylamino]-4-methylvalerylamino]-5-guanidinovaleryl]-1,3-benzothiazole-6-carboxamide] (Ac-S[dW]L[X1]V-NH2)
- pIC50 (matriptase): 6.64
- pIC50 (hepsin): 8.74
- pIC50 (HGFA; read-out: HGFA IC50): 7.24
- pIC50 (Thrombin): 5.41
- pIC50 (Factor Xa): 5.89

SMILES: CC(=O)N[C@H]1Cc2cn(nn2)CCCC[C@H](C(=O)N[C@@H](CCCNC(=N)N)C(=O)c2nc3ccccc3s2)NC(=O)[C@H](CC(C)C)NC1=O [VD4090, N-[(S)-1-[(1,3-benzothiazol-2-yl)carbonyl]-4-guanidinobutyl]-(6R,9S,12S)-12-acetylamino-9-isobutyl-8,11-dioxo-1,7,10,15,16-pentaazabicyclo[12.2.1]heptadeca-14(17),15-diene-6-carboxamide]
- pIC50 (HGFA; [1]): 5.51
- pIC50 (Thrombin): < 4.70
- pIC50 (Factor Xa): 5.37
- pIC50 (TMPRSS2; 30 min incubation, Boc-QAR-AMC at Km, read-out: TMPRSS2 IC50): 8.38

SMILES: CC(=O)NCC(=O)N[C@@H](CCC(N)=O)C(=O)N[C@@H](Cc1ccccc1)C(=O)N[C@@H](CCCNC(=N)N)C(=O)c1nc2ccccc2s1 [MM3122, N-[(S)-1-[N-(S)-1-[(1,3-benzothiazol-2-yl)carbonyl]-4-guanidinobutylcarbamoyl]-2-phenylethyl](S)-2-[(acetylaminomethyl)carbonylamino]glutaramide]
- pIC50 (matriptase; read-out: Matriptase IC50): 9.50
- pIC50 (hepsin): 9.71
- pIC50 (HGFA): 7.49
- pIC50 (Factor Xa): 6.15
- pIC50 (TMPRSS2; read-out: TMPRSS2 IC50): 10.52

SMILES: CCC(C)[C@H](NC(C)=O)C(=O)N[C@@H](CCC(N)=O)C(=O)N[C@@H](CO)C(=O)N[C@@H](CCCNC(=N)N)C(=O)c1nc2ccccc2s1 (stereo partly drawn) [MM3177, N-[(S)-2-hydroxy-1-[N-(S)-1-[(1,3-benzothiazol-2-yl)carbonyl]-4-guanidinobutylcarbamoyl]ethyl](S)-2-[(2S)-2-acetylamino-3-methylvalerylamino]glutaramide]
- pIC50 (hepsin): 8.62
- pIC50 (HGFA; read-out: HGFA IC50): 4.70
- pIC50 (Thrombin): < 4.70
- pIC50 (Factor Xa): 5.76
- pIC50 (TMPRSS2; read-out: TMPRSS2 IC50): 8.34

SMILES: CC(=O)N[C@@H](CO)C(=O)NCc1cccc(CC(=O)N[C@@H](CC(C)C)C(=O)N[C@@H](CCCNC(=N)N)C(=O)c2nc3ccccc3s2)c1 [MM1132-2, N-[(S)-1-[(1,3-benzothiazol-2-yl)carbonyl]-4-guanidinobutyl](S)-2-{[(m-{[(S)-2-acetylamino-3-hydroxypropionylamino]methyl}phenyl)methyl]carbonylamino}-4-methylvaleramide]
- pIC50 (matriptase; read-out: Matriptase IC50): 7.51
- pIC50 (hepsin): 9.49
- pIC50 (HGFA; read-out: HGFA IC50): 6.68
- pIC50 (Thrombin): 5.03
- pIC50 (Factor Xa): 5.72

SMILES: CC(=O)N[C@@H](CCCCN)C(=O)N[C@@H](CCC(N)=O)C(=O)N[C@@H](CC(C)C)C(=O)N[C@@H](CCCNC(=N)N)C(=O)c1nc2ccccc2s1 [ZFH7006, N-[(S)-3-methyl-1-[N-(S)-1-[(1,3-benzothiazol-2-yl)carbonyl]-4-guanidinobutylcarbamoyl]butyl](S)-2-[(S)-1-acetylamino-5-aminopentylcarbonyl-amino]glutaramide]
- pIC50 (matriptase; read-out: Matriptase IC50): 8.96
- pIC50 (hepsin): 9.77
- pIC50 (HGFA; [1]): 7.22
- pIC50 (Factor Xa): 6.59
- pIC50 (TMPRSS2): 7.74

SMILES: CC(=O)N[C@H]1CC(=O)NCCCC[C@@H](C(=O)N[C@@H](CCCNC(=N)N)C(=O)c2nc3ccccc3s2)NC(=O)[C@H](CCC(N)=O)NC1=O [VD3152, N-[(S)-1-[(1,3-benzothiazol-2-yl)carbonyl]-4-guanidinobutyl]-(3S,6S,14S)-6-acetylamino-3-(2-carbamoylethyl)-2,5,8-trioxo-1,4,9-triaza-14-cyclotetradecane-carboxamide]
- pIC50 (matriptase; read-out: Matriptase IC50): 8.11
- pIC50 (HGFA; [1]): 4.79
- pIC50 (Thrombin): < 4.70
- pIC50 (TMPRSS2; read-out: TMPRSS2 IC50): 7.61

SMILES: CC(=O)N[C@H]1Cc2ccc(cc2)OC/C=C\CNC(=O)C[C@@H](C(=O)N[C@@H](CCCNC(=N)N)C(=O)c2nc3ccccc3s2)NC(=O)[C@H](CC(C)C)NC1=O [VD4054, N-[(S)-1-[(1,3-benzothiazol-2-yl)carbonyl]-4-guanidinobutyl]-(4Z,10S,13S,16S)-16-acetylamino-13-isobutyl-8,12,15-trioxo-2-oxa-7,11,14-triazabicyclo[16.2.2]docosa-1(20),4,18,21-tetraene-10-carboxamide]
- pIC50 (matriptase; read-out: Matriptase IC50): 7.36
- pIC50 (hepsin; 30 min incubation, Boc-QAR-AMC at Km): 9.00
- pIC50 (HGFA; read-out: HGFA IC50): < 4.70
- pIC50 (Factor Xa): 5.50
- pIC50 (TMPRSS2; read-out: TMPRSS2 IC50): 7.67

SMILES: CC(=O)N[C@H]1Cc2ccc(cc2)OCCCC[C@@H](C(=O)N[C@@H](CCCNC(=N)N)C(=O)c2nc3ccccc3s2)NC(=O)[C@H](Cc2ccccc2)NC1=O [VD4111B, N-[(S)-1-[(1,3-benzothiazol-2-yl)carbonyl]-4-guanidinobutyl]-(7S,10S,13S)-13-acetylamino-10-benzyl-9,12-dioxo-2-oxa-8,11-diazabicyclo[13.2.2]nonadeca-1(17),15,18-triene-7-carboxamide]
- pIC50 (Thrombin): < 4.70
- pIC50 (Factor Xa): 5.06
- pIC50 (TMPRSS2; read-out: TMPRSS2 IC50): 7.78

SMILES: CCC(C)[C@H](NC(C)=O)C(=O)N[C@@H](CCC(N)=O)C(=O)N[C@@H](Cc1ccccc1)C(=O)N[C@@H](CCCNC(=N)N)C(=O)c1nc2ccccc2s1 (stereo partly drawn) [MM3116, N-[(S)-1-[N-(S)-1-[(1,3-benzothiazol-2-yl)carbonyl]-4-guanidinobutylcarbamoyl]-2-phenylethyl](S)-2-[(2S)-2-acetylamino-3-methylvalerylamino]glutaramide]
- pIC50 (matriptase; read-out: Matriptase IC50): 9.04
- pIC50 (hepsin): 9.85
- pIC50 (HGFA; read-out: HGFA IC50): 7.52
- pIC50 (Factor Xa): 6.10
- pIC50 (TMPRSS2; read-out: TMPRSS2 IC50): 8.76
